Data on 1 compound can be found in article PMC11582173, “Synthesis, cytotoxicity, anti-inflammatory, anti-metastatic and anti-oxidant activities of novel chalcones incorporating 2-phenoxy-N-arylacetamide and thiophene moieties: induction of apoptosis in MCF7 and HEP2 cells” (Naunyn-Schmiedeberg's Archives of Pharmacology, 2024).

Values after ≈ are worked out from the molar mass of the structure shown.

Experiment [1] concerns human laryngeal carcinoma (HEP2) cells. As to the kind of experiment: SRB cytotoxic assay, HEP2. Type of experiment: cell-based. Particulars: HEp-2, 48 h. On the procedure: All the prepared compounds were screened at a concentration of 100 µg/mL against six different human cell lines: human laryngeal carcinoma (HEP2), human colorectal carcinoma (HCT116), human breast carcinoma (MCF7), human Lung carcinoma (A549), human liver carcinoma (HEPG2), and normal African Green monkey kidney cell line (VERO). Doxorubicin was used as a positive control for comparison purposes.
The human laryngeal carcinoma (HEP2), colorectal carcinoma (HCT116), breast carcinoma (MCF7), Lung carcinoma (A549), liver carcinoma (HEPG2), and normal African Green monkey kidney cell line (VERO) were purchased from American Tissue Culture Collection (Rockville, MD, USA). The cells were treated for 48 h with a single dose (100 µg/mL) of all the tested chalcones. […] In brief, the cells were seeded in a 96-well microtiter plate at a concentration of 5×10^3 cells/well in 100 µL fresh RPMI-1640 medium and left to attach to the plates for 24 h. Then, cells were incubated with 100 μL of different concentrations (50, 25, 12.5, 6.25, and 0.0 µg/mL) of 5c in triplicate at 37 °C for 48 h. After that, the cells were fixed with 10 µL cold 100% Trichloroacetic acid (TCA) for 1h at 4 °C. The wells were then washed 1 time with distilled water using (automatic Tecan washer, Germany) and stained for 30 min at room temperature with 50 µL 0.4% SRB dissolved in 1% acetic acid. The plates were air-dried and the dye was solubilized with 100 µl/well of 1M tris base (pH 10.5) for 5 min. The optical density (O.D.) of each well was measured spectrophotometrically at 570 nm with an ELISA microplate reader (Sunrise Tecan reader, Germany) with automatic shaking for 30 seconds before reading. The mean background absorbance was subtracted automatically and mean values for each drug concentration were calculated. The percentage of cell survival was calculated as follows: Survival fraction= O.D. (treated cells)/ O.D. (control cells) (Bhat et al. [2023]).
A general note: Sulforhodamine B stains cellular protein and so reports cell mass.

In experiment [2] the test system is IL-1B gene. As to the kind of experiment: Real-time PCR, IL-1B gene expression. Particulars: relative to untreated control (1). The format is cell-based, human. The method, then:
The expression level of the following six genes (Ki-67, Survivin, Interleukin-1 beta (IL-1B), Interleukin-6 (IL-6), Cyclooxygenase-2 (COX-2) and protein kinase B (AKT1)) was determined in MCF7 and HEP2 treated with the IC50 of compound 5c. The untreated cells were used as a negative control for comparison purposes. […] Ki-67 is a popular proliferation marker for human tumor cells. […] Survivin is an inhibitor of apoptotic protein (IAP) family member, which is essential for cell division. The lowering of the expression of survivin inhibited tumor development, triggered apoptosis, and made tumor cells more susceptible to radiation and chemotherapy (Albadari and Li [2023]). […] IL-1B is a pleiotropic mediator of inflammation, which is produced in response to a variety of stressors (Aarreberg et al. [2019]). […] IL-6 is a pro-inflammatory cytokine that plays a significant role in the proliferation and differentiation of human cells. It promotes the production of numerous proteins involved in acute inflammation (Uciechowski and Dempke [2020]). […]
The expression level of the following six genes (Ki-67, survivin, AKT1, IL-6, COX2, and IL-1B) was examined using real-time polymerase chain reaction (qPCR) (Mohamed et al. [2023a]). […] The cycle threshold (Ct) was determined automatically. […]
(In general: Real-time PCR tracks product formation cycle by cycle.)

Regarding `COc1ccc(NC(=O)COc2ccc(C=CC(=O)c3cccs3)cc2)cc1` [Compound 5c, N-(4-Methoxyphenyl)-2-(4-(3-oxo-3-(thiophen-2-yl)prop-1-en-1-yl)phenoxy)acetamide], in experiment [1], the IC50 (in general, the concentration needed to halve the response being measured) stood at 12 µg/mL (≈ 30.5 µM). In addition, in experiment [1] (single dose 100 µg/mL, read-out: %Inhibition at100 µg/mL HEP2), the inhibition at 100 µg/mL is more than 75%. The results for the IL-1B expression folding in experiment [2] (HEP2 cells treated with IC50 of 5c) and in experiment [2] (MCF7 cells treated with IC50 of 5c) were 0.461±0.069 fold and 0.4008±0.116 fold, respectively.
